Laboratory results taken from patent publication US20020177166A1, “Binding motif of a receptor” (MEDVET SCIENCE PTY.LTD., priority 2000, published 2002).
Ends that are not written are not given here.

Columns and labels:
[1] = tested on: Ser585 phosphorylation of βc in MO7e cells; experiment: Ser585 phosphorylation and 14-3-3 recruitment in MO7e cells; type: cell-based; conditions: 30 μM H89 for 15 minutes prior to IL-3
Description: (§1) The βc was immunoprecipitated and then subjected to immunoblot analysis using the anti-phospho-Ser585βc antibody. […] Immunoprecipitates were electrophoresed on a polyacrylamide gel and the amount of radiolabelled receptor immunoprecipitated was quantified using a phosphorImager.
(§2) After various treatments, cells were lysed, βc was immunoprecipitated, and subjected to immunoblot analysis with the anti-phospho-Ser585 antibody.

[2] = tested on: Ser585 phosphorylation of βc in CTL-EN cells; experiment: Ser585 phosphorylation of βc in CTL-EN cells expressing IL-3Ra and wtβc, immunoblot; type: cell-based
Description: as §1, §2

PKA = biological target: T1, PKA (Homo sapiens, UniProt P17612); experiment: In vitro kinase assay, PKA phosphorylation of hisβc445-881 with peptide competition; type: biochemical; conditions: 200 mM peptides
T1 construct: substrate Hisβc445-881 expressed in bacteria
Protocol: Peptide competitions were also performed using 200 mM peptides containing the indicated sequences. b) The ability of PKA and CKII to phosphorylate Ser585 of hisβc445-881 was examined by immunoblot analysis using the anti-phospho-Ser585βc antibodies. Filters were probed firstly with anti-phospho-Ser585βc antibodies (top panel). […] Cells were then lysed and βc immunoprecipitated with 1C1. Ser585 phosphorylation of βc was determined using the anti-phospho-Ser585 antibodies (top panel). The filter was then stripped and re-probed with anti βc 1C1 antibodies.
In an effort to identify the kinase involved in the phosphorylation of Ser585, we firstly examined the ability of several kinases to phosphorylate the purified recombinant intracellular portion of βc (hisβc445-881) in vitro. Ser585 of βc lies within a SXXD motif which is known to be a CKII consensus phosphorylation site. Ser585 also lies within a RS motif which is a possible, but poor, PKA phosphorylation site. […] Additional bands for the PKA kinase reactions were evident due to the autocatalytic activity of PKA. […] In this experiment, the non-phospho-HSRSLP peptide is likely to act as a competitive substrate for phosphorylation of Ser585 of hisβc445-881 by PKA. […]

[3] = tested on: interaction of hisβc445-881 with p85 and 14-3-3; experiment: PKA-phosphorylated hisβc445-881 Sepharose pull-down from COS-7 lysates with peptide competition; type: binding; conditions: 200 mM competing peptides, 1 hour at 4° C.
Protocol: (a) analysis of PI 3-kinase activity. […] Cells were then lysed and phospho-tyrosine containing proteins were immunoprecipitated (2×10^7 cells/IP) using the 4G10 antibody. Immunoprecipitates were washed in 1× PI 3-kinase buffer (20 mM HEPES, pH 7.5, 5 mM MgCl2, 1 mM EGTA) and PI 3-kinase activity was analysed in a lipid kinase assay using phosphatidyl inositol and g^32PATP as substrates as described in the “Materials and Methods”. Autoradiogram of TLC plate is shown with ^32P-labelled phosphatidyl inositols (PIP) and the origin indicated. […] (b) CTL-EN cells were also examined for the association of βc with p85. […] Cells were then lysed and the βc immunoprecipitated (2×10^7 cells/IP) with the 1C1 anti-βc specific mAb. Immunoprecipitates were then subjected to SDS-PAGE, transferred to nitrocellulose and immunoblotted with anti-p85 (1 mg/ml) followed by detection with HRP-conjugated anti-rabbit IgG antibody and ECL. The filters were then stripped, probed with anti-SHP2 (1 mg/ml), stripped again and finally probed with 1C1 anti-βc (2 mg/ml). […] The association of hisβc445-881 with p85 was also assessed in pull-down experiments together with peptide competition. (c) List of peptides used in the hisbβc445-881 pull-down experiment. S refers to a phospho-serine residue. […]

[4] = tested on: anti-phospho-585Ser recognition of βc; experiment: Western blot of immunoprecipitated βc with peptide-preincubated anti-phospho-585Serβc antibody; type: binding, human; conditions: 100 fold molar excess of peptide
Protocol: (§3) Lysates of HEK293T cells transfected with wild type βc were immunoprecipitated with anti-βc antibody (MAb 8E4). Immunoprecipitates were run on 7.5% SDS-PAGE under reducing conditions. […] M1 cells expressing GM-CSFRa and βc were either untreated (−) or stimulated with GM-CSF (2 ng/ml) for 30 seconds (+). Lysates of the M1 cells were immunoprecipitated with anti-βc antibody (MAb 8E4) and the immunoprecipitates run on 10% SDS-PAGE under reducing conditions.
These possibilities were initially addressed using ^32P-orthophosphate labelled HEK 293T cells transfected with the GM-CSF receptor (α and βc subunits). These cells were stimulated with GM-CSF, total βc was immunoprecipitated and examined for ^32P-labelling. This is most likely due to the presence of sixty serine and threonine residues in the intracellular region of βc, some of which may be constitutively phosphorylated.

[5] = biological target: T2, βc association with 14-3-3ζ (Homo sapiens, UniProt P63104); experiment: GST-14-3-3-sepharose precipitation of βc from transfected HEK293T lysates with peptide competition; type: binding; conditions: for inhibition of βc association with GST-14-3-3 in pull-down: peptides 100 uM
T2 construct: expressed in transfected cells; host or cells: HEK293T (βc)
T2 sequence (P63104 1-245): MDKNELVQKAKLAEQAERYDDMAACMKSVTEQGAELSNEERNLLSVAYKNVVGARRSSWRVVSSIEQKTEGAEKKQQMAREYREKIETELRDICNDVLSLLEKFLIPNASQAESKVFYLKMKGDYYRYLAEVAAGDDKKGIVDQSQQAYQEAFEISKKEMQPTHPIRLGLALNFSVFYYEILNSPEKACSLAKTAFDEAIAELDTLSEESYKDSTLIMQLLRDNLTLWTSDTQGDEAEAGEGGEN
Protocol: Lysates of HEK293T cells transfected with βc were immunoprecipitated with GST-14-3-3-sepharose in the absence or in the presence of chemically-synthesised peptides (100 uM) containing a βc sequence ([…]) or a Raf-1 sequence ([…]). In the phosphorylated peptides the relevant phosphorylated serine is underlined. The experiment was performed on 7.5% SDS-PAGE under reducing conditions. The presence of βc in the precipitation experiment was determined by Western blotting with anti-βc antibody (MAb 1C1).
Lysates of HEK293T cells transfected with βc were precipitated with GST-14-3-3-sepharose in the absence or in the presence of various concentrations of chemically-synthesised peptides. […] The appropriate phosphorylated serine in each peptide is underlined. The experiment was performed on 7.5% SDS-PAGE under reducing conditions. The presence of βc in the immunoprecipitates was determined by Western blotting with anti-βc antibody (MAb 1C1).
Cells were lysed in lysis buffer for 30 mins at 4° C. followed by centrifugation of the lysate for 15 mins at 12,000 g 4° C. […] Samples were boiled for 5 mins in SDS sample load buffer in the presence of 2-mercaptoethanol before separating precipitated proteins by SDS-PAGE.
Cell lysates were precipitated or immunoprecipitated in the presence of various concentrations of the following peptides: βc peptide sequence […] either non phosphorylated or serine phosphorylated and a scrambled peptide […]. Raf1 peptides corresponding to the sequence […] were also used and were either non phosphorylated or serine phosphorylated. The corresponding phosphorylated serine in each peptide is underlined. Peptides were synthesised by Chiron Mimotopes, Melbourne, Australia. The presence of βc in either the immunoprecipitation or precipitation experiment was determined by Western blotting with anti-βc antibody (MAb 1C1).

[6] = tested on: 585Ser phosphorylation of βc in M1 myeloid leukaemic cells; experiment: 585Ser phosphorylation of βc in M1 cells, immunoblot; type: cell-based; conditions: 2 ng/ml GM-CSF
Protocol: as §3

TF-1 = TF-1 proliferation assay; type: cell-based; conditions: recombinant human cytokine produced in E. coli
Protocol: Acad. Sci., 91, 5838. Cytokine purity and quantitation was determined by HPLC analysis and Coomasie staining of SDS-PAGE separated proteins.

[7] = tested on: CC[C@H](C)[C@H](NC(=O)[C@H](CC(=O)O)NC(=O)[C@@H]1CCCN1C(=O)[C@H](CC(C)C)NC(=O)[C@H](CO)NC(=O)[C@H](CCCNC(=N)N)NC(=O)[C@H](CO)NC(=O)[C@H](Cc1c[nH]cn1)NC(=O)[C@@H]1CCCN1C(=O)[C@@H]1CCCN1C(=O)CNC(=O)[C@H](CC(C)C)NC(=O)[C@@H](N)CS)C(=O)N[C@@H](CC(C)C)C(=O)NCC(=O)O; experiment: purified protein, by the assay type; conditions: other: peptide as PKA substrate, hyperbolic regression analysis; 21.0 °C

For `O=S(=O)(NCCNC/C=C/c1ccc(Br)cc1)c1cccc2cnccc12` [H89], the “effect on IL-3 induced phosphorylation of Ser585” value [1] was “significantly reduced the IL-3 induced phosphorylation of Ser585” and the “effect on IL-3 induced phosphorylation of Ser585” value ([2]; 30 μM H89 for 15 minutes prior to IL-3) was “significantly reduced the IL-3 induced phosphorylation of Ser585”.
`CCCC(=O)Nc1ncnc2c1ncn2[C@@H]1O[C@@H]2COP(=O)(O)O[C@H]2[C@H]1OC(=O)CCC` [db-cAMP, dibutyryl cAMP] was tested, and the “Ser585 phosphorylation of βc after stimulation” value ([2]; 50 ng/ml IL-3, 50 μM forskolin or 100 μM dibutyryl cAMP) was “increased Ser585 phosphorylation”.
In the case of CLPLSGPDSHIRGPL [scrambled peptide], the “effect on phosphorylation of hisβc445-881 by PKA” value (PKA) is reported as “did not”, the “effect on interaction of p85 with hisβc445-881” value [3] is reported as “had no apparent effect on this interaction” and the “inhibition of anti-phospho-585Ser recognition of βc” value [4] is reported as “did not”.
With “CLSQRQRSTSTPNVHM [nonphosphorylated Raf-1 peptide]” the “inhibition of βc association with GST-14-3-3 in pull-down” value [5] was “did not”.
“CLSQRQRSTSTPNVHM [serine phosphorylated Raf-1 peptide] (also: serine phosphorylated, position not given here)” was tested, and the “inhibition of βc association with GST-14-3-3 in pull-down” value [5] was “able to inhibit βc association with 14-3-3”.
With CPLSLRSKPSPGPGP the “inhibition of βc association with 14-3-3, dose dependence and specificity” value ([5]; various concentrations of peptides (FIG. 8)) was “failed to inhibit this association”.
For “GM-CSF: recombinant human GM-CSF produced in E. coli”, the “585Ser phosphorylation of βc” value [6] was “strongly upregulated ^585Ser phosphorylation of βc” and the “ED50 in TF-1 proliferation assay” value (TF-1) was 0.03 ng/mL.
Work on PKA (Homo sapiens) yielded a Km [7] of 376 µM and a Vmax [7] of 250 nmol/min/mg.
